The results in this text go back to US9567317B2, “Multicomponent crystalline system comprising nilotinib and selected co-crystal formers” (BASF SE, priority 2012, dated 2017).

For this series the following is noted: relative humidity changed from 0 to 95% according to the measurement program (FIG. 4).

Turning to `Cc1cn(-c2cc(NC(=O)c3ccc(C)c(Nc4nccc(-c5cccnc5)n4)c3)cc(C(F)(F)F)c2)cn1.Cl.O.O` [Nilotinib monohydrochloride dihydrate form A], the “water content change (water uptake)” value was “Δm = 4.2%”.

On to `Cc1cn(-c2cc(NC(=O)c3ccc(C)c(Nc4nccc(-c5cccnc5)n4)c3)cc(C(F)(F)F)c2)cn1.Cl.O` [Nilotinib monohydrochloride monohydrate form B], for which the “water content change (water uptake)” value was “Δm = 3.2%”.
